Reference: patent US12437835B2, “Interrogatory cell-based assays and uses thereof” (Berg LLC, priority 2012, dated 2025)
“Also recorded” adds a separate entry of the source.

What was measured:
caspase 3 = experiment: Caspase 3 activation in endothelial cells; type: cell-based
Description: Angiogenesis is a key enabling feature of tumor progression that provides oxygen and nutrients that are required for tumor cell growth. We have investigated the anti-angiogenic properties of CoQ10, an anti-tumor drug that is currently under investigation in human studies of cancer progression.

HUVEC cells [1] = experiment: Endothelial tube formation in 3-D MATRIGEL; type: cell-based, Human; settings: for endothelial tube formation: 3-D matrigel
Experimental: (§1) Methods: Human umbilical vein endothelial cell (HUVEC) fate decisions that modulate the angiogenic phenotype were examined in the presence of 100 or 1500 μM CoQ10 or excipient and compared to untreated control cells. Endothelial cell fate assays for apoptosis, proliferation, migration and 3-D tube formation within MATRIGEL® were performed.
(§2) To assess the potential effects of CoQ10 on endothelial migration, HUVEC migration was examined 5 hours post-cell clearance, in an endothelial scratch assay. […] In order to determine if the CoQ10 anti-tumor activity is due to effects on endothelial sprouting angiogenesis, we examined endothelial tube formation in 3-D MATRIGEL® cultures over time. Addition of excipient in both the gel and overlying media impaired tube formation compared to control.
CoQ10 impairs endothelial tube formation: Endothelial cells growing in 3-D matrigel form tubes over time. Differential effects of 100 μM and 1500 μM CoQ10 on tube formation were observed. […] Images shown in FIG. 56 were taken at 72 hours.

HUVEC cells [2] = experiment: HUVEC cell numbers; type: cell-based, Human
Experimental: as §1
CoQ10 decreases endothelial cell numbers and proliferation: Sub-confluent cultures of HUVEC cells were treated for 72 hours with 100 or 1500 μM CoQ10 and assayed for both cell numbers (FIG. 54A) and proliferation (FIG. 54B) using a propidium iodide incorporation assay (detects G2/M phase DNA).

HUVEC cells [3] = experiment: HUVEC migration, endothelial scratch assay; type: cell-based, Human; settings: for closure of the cleared area (scratch assay): confluent HUVEC
Experimental: as §1, §2
CoQ10 decreases endothelial cell migration: HUVEC cells were grown to confluence tested for migration using the ‘scratch’ assay. 100 or 1500 μM CoQ10 was applied at the time of scratching and closure of the cleared area was monitored over 48 hours.

Bcl2 = settings: melanoma cell, in the presence of VEGF; cited from earlier work
TAZ = experiment: Western blotting of TAZ in cardiomyocytes; type: cell-based, Human; settings: hyperglycemia conditioned cardiomyocytes, diabetic drug plus Coenzyme Q10 (T+R)
Experimental: (§3) Human cardiomyocytes were subject to conditions simulating an diabetic environment experienced by the disease-relevant cells in vivo. Specifically, the cells were exposed to hyperglycemic conditions and hyperlipidemia conditions. The hyperglycemic condition was induced by culturing cells in media containing 22 mM glucose. The hyperlipidemia condition was induced by culturing the cells in media containing 1 mM L-carnitine, 0.7 mM Oleic acid and 0.7 mM Linoleic acid.
(§4) The cell model comprising the above-mentioned cells, wherein the cells were exposed to each condition described above, was additionally “interrogated” by exposing the cells to an “environmental perturbation” by treating with a diabetic drug (T) which is known to cause cardiotoxicity, a rescue molecule (R) or both the diabetic drug and the rescue molecule (T+R). Specifically, the cells were treated with diabetic drug; or treated with rescue molecule Coenzyme Q10 at 0, 50 µM, or 100 µM; or treated with both of the diabetic drug and the rescue molecule Coenzyme Q10.
(§5) Protein expression levels of GPAT1 and TAZ for each condition and each treatment were tested with western blotting.

GPAT1 = experiment: Western blotting of GPAT1 in cardiomyocytes; type: cell-based, Human; settings: hyperglycemia conditioned cardiomyocytes, diabetic drug plus Coenzyme Q10 (T+R)
Experimental: as §3, §4, §5

HUVEC cells [4] = experiment: Nitric oxide (NO) generation in HUVEC under normoxia and hypoxia; type: cell-based, Human; settings: subconfluent and confluent HUVEC, normoxic or hypoxic, 0, 100 or 1500 μM CoQ10
Experimental: (§6) The response of HUVEC cells to normoxia and hypoxia in the presence of absence of CoQ10 was assessed. Specifically, HUVEC cells were grown in subconfluent and confluent cultures under normoxic or hypoxic conditions as described herein. The cells were also exposed to 0, 100, or 1500 μM CoQ10. Nitric oxide (NO) and reactive oxygen species (ROS) levels were determined using methods provided herein.

HUVEC cells [5] = experiment: HUVEC apoptosis (annexin V/propidium iodide positive cells, flow cytometry); type: cell-based, Human; settings: for propidium iodide positive apoptotic cells: 24 hours
Experimental: as §1, §2
CoQ10 has divergent effects on endothelial cell survival: Confluent and sub-confluent cultures of HUVEC cells were treated for 24 hours with 100 or 1500 μM CoQ10 and assayed for propidium iodide positive apoptotic cells. The results are shown in FIGS. 53A and 53B, respectively.

HUVEC cells [6] = experiment: Endothelial morphology of HUVEC cultures; type: cell-based, Human; settings: 24 hours
Experimental: Effect of CoQ10 on endothelial morphology: Human umbilical vein endothelial cells (HUVEC cells) were treated for 24 hours with a range of concentrations of CoQ10. Drug was applied to confluent cells that closely resemble ‘normal’ cells and also to sub-confluent cells that more closely represent the angiogenic phenotype of proliferating cells. […] The response of sub-confluent endothelial cells to CoQ10 diverged from the confluent cell response (FIG. 52B).

HUVEC cells [7] = experiment: Reactive oxygen species (ROS) generation in HUVEC under normoxia and hypoxia; type: cell-based, Human; settings: subconfluent and confluent HUVEC, normoxic or hypoxic, 0, 100 or 1500 μM CoQ10
Experimental: as §6

[8] = concentration not stated (summary)

COC1=C(OC)C(=O)C(C/C=C(\C)CC/C=C(\C)CC/C=C(\C)CC/C=C(\C)CC/C=C(\C)CC/C=C(\C)CC/C=C(\C)CC/C=C(\C)CC/C=C(\C)CCC=C(C)C)=C(C)C1=O [CoQ10, Coenzyme Q10]
activation of caspase 3 (caspase 3): induces activation of caspase 3 | HUVEC tube formation (HUVEC cells [1]; 1500 μM CoQ10, compared to both excipient and control untreated cells, 24 hours up to 96 hours): further impaired | endothelial tube formation (HUVEC cells [1]; 100 μM CoQ10): modest effect | endothelial tube formation (HUVEC cells [1]; 1500 μM CoQ10, images at 72 hours): Impaired cell to cell association and breakdown of early tube structure was significant; also recorded: dramatic disruption of endothelial tube formation | tube formation in 3-D MATRIGEL tube formation assays (HUVEC cells [1]; [8]): impairs | HUVEC cell counts (HUVEC cells [2]; 1500 μM CoQ10): significantly decreased | cell numbers (HUVEC cells [2]; sub-confluent HUVEC, 72 hours, 100 or 1500 μM, high concentrations of CoQ10): significant decrease; also recorded: decreased cell numbers | HUVEC migration (HUVEC cells [3]; 5 hours post-cell clearance, 100 and 1500 μM, excipient also impaired migration): significantly impaired | endothelial migration in scratch assays (HUVEC cells [3]; [8]): potent inhibition of endothelial migration; also recorded: impairs endothelial migration | closure of the cleared area (scratch assay) (HUVEC cells [3]; 100 μM CoQ10, monitored over 48 hours, compared to control): delayed endothelial closure | closure of the cleared area (scratch assay) (HUVEC cells [3]; 1500 μM CoQ10, up to 48 hours): prevented closure | level of Bcl2 (Bcl2): decreased | protein expression level of TAZ (TAZ): normalized | protein expression level of GPAT1 (GPAT1): normalized | generation of nitric oxide (NO) (HUVEC cells [4]): differential dose dependent generation | HUVEC apoptosis (annexin V/propidium iodide positive cells) (HUVEC cells [5]; 1500 μM CoQ10, compared to excipient or control cells): increase | apoptosis / cell death of sub-confluent (angiogenic/proliferating) endothelial cells (HUVEC cells [5]; [8]): increases apoptosis; also recorded: selectively induces cell death | cell death of confluent (non-proliferating) endothelial cells (HUVEC cells [5]; concentration not stated or low doses (summary), compared to controls): protective; also recorded: decreased compared to controls | propidium iodide positive apoptotic cells (HUVEC cells [5]; confluent HUVEC, 100 or 1500 μM CoQ10): protective | propidium iodide positive apoptotic cells (HUVEC cells [5]; sub-confluent HUVEC, 1500 μM CoQ10): increased apoptosis | endothelial morphology (HUVEC cells [6]; confluent cultures, 5000 μM): subtle increase in rounded cells | endothelial morphology (HUVEC cells [6]; confluent cultures, increasing concentrations of CoQ10): closer association, elongation and alignment of ECs | endothelial morphology (HUVEC cells [6]; sub-confluent cultures, 1000 μM CoQ10 and above): visibly unhealthy | visible cell death (HUVEC cells [6]; sub-confluent cultures, increasing concentrations of CoQ10): Increased cell death | generation of reactive oxygen species (ROS) (HUVEC cells [7]): differential dose dependent generation
